According to patent EP4663632A1, “COMPOUNDS USEFUL FOR THE MODULATION OF THE ACTIVITY OF STING” (Sulis Therapeutics ApS, priority 2024, dated 2025):
pIC50: −log10 of the molar value.

Legend:
[1] = target: T1, C-terminal domain (CTD) of human STING (Homo sapiens, UniProt Q86WV6); experiment: STING binding FP assay I; design: recombinant human STING protein (155-379); conditions: 35 nM STING, 4 nM Probe 1
Procedure: (§1) The interaction between molecules and the C-terminal domain (CTD) of human STING was evaluated using a competition binding assay. In this assay, recombinant human STING protein (155-379) and a STING binding fluorescent probe were employed. Upon binding of the probe to STING, the rotation of the fluorescent probe is slowed due to the larger molecular size of the protein-bound complex. As a result, emitted light retains its plane of polarization, leading to an increase in fluorescence polarization. Molecules competing for the probe binding site displace the probe, which leads to rapid randomization of the polarization plane of the emitted light and a subsequent decrease in measured fluorescence polarization signal. Change in polarization was measured, allowing a comparative evaluation of the binding affinities of different compounds to the target protein.
(§2) The assay was performed in 96-well plates (ThermoFisher, cat.# 237108) containing 100µl : 10 µL test compound in 10% DMSO and buffer A (150 mM NaCl, 50 mM HEPES pH 7.5, 1 mM DTT) + 90 µL prepared master mix solution of: 4 nM fluorescein-labelled STING ligand (Probe 1; synthesis described above) in buffer A + 0.055% Tween-20 (v/v) and 35 nM STING in buffer A. Post mixing, plates were agitated at 600rpm and incubated for 20 min at room temperature. Subsequent measurements of the fluorescence polarization signal were made on a BioTek Synergy-H1 plate reader, using a polarization filter; Exc: 485/20 nm, Em: […]) with a gain-setting of 75. IC50 values were determined using a standard non-linear regression four-parameter curve fit in Graphpad Prism.

[2] = target: T1, C-terminal domain (CTD) of human STING; experiment: STING binding FP assay II; design: recombinant human STING protein (155-379); conditions: 7 nM STING
Procedure: as §1, §2
The procedure for STING binding FP assay II is the same as described for STING binding FP assay I, except for a lower STING concentration. In STING binding FP assay II, a concentration of 7 nM STING in buffer A was used.

STING [3] = target: T2, STING (Homo sapiens, UniProt Q86WV6); experiment: Western Blot analysis for S1 STING ligand antagonism in primary human skin fibroblasts; format: cell-based; design: host or cells: HFF-1 human foreskin fibroblasts; conditions: 5 µM; 2 h or 1 h before, simultaneously with, or 15 minutes after 0.3 µM diABZI
T2 sequence (Q86WV6 whole entry, the tested form may be a part): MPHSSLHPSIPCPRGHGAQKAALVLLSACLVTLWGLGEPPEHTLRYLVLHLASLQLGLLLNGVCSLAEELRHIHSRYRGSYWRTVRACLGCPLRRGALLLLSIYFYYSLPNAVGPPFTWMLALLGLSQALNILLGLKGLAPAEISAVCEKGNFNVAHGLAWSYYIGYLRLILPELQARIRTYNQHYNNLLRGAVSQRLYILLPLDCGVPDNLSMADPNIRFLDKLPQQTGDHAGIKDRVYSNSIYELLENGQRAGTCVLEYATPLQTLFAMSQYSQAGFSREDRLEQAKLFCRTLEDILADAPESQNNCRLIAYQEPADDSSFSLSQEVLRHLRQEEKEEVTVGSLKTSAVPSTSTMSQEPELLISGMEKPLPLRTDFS
Procedure: To assess whether S1 STING ligands inhibit STING activation, primary human skin fibroblasts (Figure 5) or HFF-1 cells (Figure 6) were treated with various compounds which comprise only an S1 ligand domain and a Linker domain before undergoing Western Blot analysis as described below. Compounds A9, A11, A26 and A30 used in the following experiments share a common S1 ligand, which is also shared by Example compounds 1, 3, 5-29, 33-38.
Cells were incubated with A9 or A11 for 1 or 2 hours before addition of diABZI c3, treated with test compound and diABZI c3 simultaneously, or treated with A9 or A11 after 15 minutes incubation with diABZI c3. As a control, cells were also treated with diABZI c3 alone.

STING [4] = target: T2, STING; experiment: Inhibition of STING-agonist-induced IFN-β and CXCL10 release by Compounds A9 and A11; format: cell-based; design: host or cells: HFF-1 human foreskin fibroblasts; conditions: 1 to 2 hours prior to, simultaneously with, or 15 minutes after diABZI c3
Procedure: HFF-1 cells were also assessed for inhibition of STING-agonist-induced IFN-β and CXCL10 release in cells treated with Compounds A9 and A11. […] In contrast, pre-treating cells for 1 to 2 hours prior to diABZI c3, simultaneous treatment with A9 and diABZI c3, or pre-treating cells for 15 minutes with diABZI c3 followed by A9 treatment led to a decrease in the IFN media concentration to ~100 U/mL. […] In contrast, cells pre-treated for 1 to 2 hours prior to diABZI c3, simultaneous treatment with A9 and diABZI c3, or pre-treating cells for 15 minutes with diABZI c3 followed by A9 treatment led to a decrease in the CXCL10 media concentration to […] (Figure 9B, unfiled bars).
In contrast, pre-treating cells for 1 to 2 hours prior to diABZI c3, simultaneous treatment with A11 and diABZI c3, or pre-treating cells for 15 minutes with diABZI c3 followed by A11 treatment led to a decrease in the IFN media concentration to -10 - 20 U/mL. […] In contrast, cells pre-treated for 1 to 2 hours prior to diABZI c3, simultaneous treatment with A11 and diABZI c3, or pre-treating cells for 15 minutes with diABZI c3 followed by A11 treatment led to a decrease in the CXCL10 media concentration to -10 - 20 pg/mL (Figure 9B; filled bars).

T1 sequence (Q86WV6 155-379): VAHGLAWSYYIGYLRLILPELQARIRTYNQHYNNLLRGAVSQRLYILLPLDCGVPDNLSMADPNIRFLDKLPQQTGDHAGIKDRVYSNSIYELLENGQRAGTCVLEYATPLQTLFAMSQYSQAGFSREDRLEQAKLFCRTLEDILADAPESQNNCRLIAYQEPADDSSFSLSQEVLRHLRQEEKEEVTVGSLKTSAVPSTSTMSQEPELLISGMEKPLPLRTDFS

| pIC50 [1] | pIC50 [2] | SMILES | further results |
| --- | --- | --- | --- |
| > 7.52 | – | CCn1nc(C)cc1C(=O)N=c1n(C)c2cc(C(N)=O)ccc2n1CCC(CCn1c(=NC(=O)c2cc(C)nn2CC)n(C)c2cc(C(N)=O)ccc21)OCC(=O)NCCOCCOCCOCCNc1cccc2c1C(=O)N(C1CCC(=O)NC1=O)C2=O (centres unmarked) [Example 1, 1-[3-({N-2-[2-(2-{2-[2-(2,6-Dioxo-3-piperidyl)-1,3-dioxo-4-isoindolinylamino]ethoxy}ethoxy)ethoxy]ethylcarbamoyl}methoxy)-5-{5-carbamoyl-2-[(1-ethyl-3-methyl-5-pyrazolyl)carbonylimino]-3-methyl-2,3-dihydro-1H-1,3-benzimidazol-1-yl}pentyl]-2-[(1-ethyl-3-methyl-5-pyrazolyl)carbonylimino]-3-methyl-2,3-dihydro-1H-1 ,3-benzimidazole-5-carboxamide] | – |
| > 7.52 | 8.62 | CCn1nc(C)cc1C(=O)N=c1n(C)c2cc(C(N)=O)ccc2n1CCC(CCn1c(=NC(=O)c2cc(C)nn2CC)n(C)c2cc(C(N)=O)ccc21)OCC(=O)NCCOCCOCCOCCOCC(=O)N[C@H](C(=O)N1C[C@H](O)C[C@H]1C(=O)NCc1ccc(-c2scnc2C)cc1)C(C)(C)C (some centres unmarked) [Example 5] | – |
| > 7.52 | – | CCn1nc(C)cc1C(=O)N=c1n(C)c2cc(C(N)=O)ccc2n1CCC(CCn1c(=NC(=O)c2cc(C)nn2CC)n(C)c2cc(C(N)=O)ccc21)OCC(=O)NCCOCCOCCOCC(=O)N[C@H](C(=O)N1C[C@H](O)C[C@H]1C(=O)NCc1ccc(-c2scnc2C)cc1)C(C)(C)C (some centres unmarked) [Example 28] | – |
| > 7.52 | 8.74 | CCn1nc(C)cc1C(=O)N=c1n(C)c2cc(C(N)=O)ccc2n1CCC(CCn1c(=NC(=O)c2cc(C)nn2CC)n(C)c2cc(C(N)=O)ccc21)OCC(=O)NCCOCCOCCOCCOCCNc1cccc2c1C(=O)N(C1CCC(=O)NC1=O)C2=O (centres unmarked) [Example 29, 1-{3-[(N-2-{2-[2-(2-{2-[2-(2,6-Dioxo-3-piperidyl)-1,3-dioxo-4-isoindolinylamino]ethoxy}ethoxy)ethoxy]ethoxy}ethylcarbamoyl)methoxy]-5-{5-carbamoyl-2-[(1-ethyl-3-methyl-5-pyrazolyl)carbonylimino]-3-methyl-2,3-dihydro-1H-1 ,3-benzimidazol-1-yl}pentyl}-2-[(1-ethyl-3-methyl-5-pyrazolyl)carbonylimino]-3-methyl-2,3-dihydro-1H-1,3-benzimidazole-5-carboxamide] | – |
| – | – | CCn1nc(C)cc1C(=O)N=c1n(C)c2cc(C(N)=O)ccc2n1CCC(CCn1c(=NC(=O)c2cc(C)nn2CC)n(C)c2cc(C(N)=O)ccc21)OCC(=O)N1CCc2cc(OC)ccc2C1 (centres unmarked) [Example A9, 1-(5-{5-Carbamoyl-2-[(1-ethyl-3-methyl-5-pyrazolyl)carbonylimino]-3-methyl-2,3-dihydro-1H-1,3-benzimidazol-1-yl}-3-[2-(6-methoxy-1,2,3,4-tetrahydro-2-isoquinolyl)-2-oxoethoxy]pentyl)-2-[(1-ethyl-3-methyl-5-pyrazolyl)carbonylimino]-3-methyl-2,3-dihydro-1H-1,3-benzimidazole-5-carboxamide] | LC3B lipidation (STING [3]): reduced LC3B lipidation; P-STING intensity (activation of STING) (STING [3]): reduced intensity of P-STING; P-TBK1 intensity (STING [3]): reduced P-TBK1 intensity; IFN media concentration (STING [4]; 5 µM): ~ 100 U/mL; CXCL10 media concentration (STING [4]; A9 5 µM): ~ 30 U/mL |
